Test results from US20110160594A1 (priority 2008, published 2011).

The compounds below were run on Pyricularia oryzae. Details: liquid culture, incubation with compound 24-48 h.
Type: cell-based

Compound | branch of the dendrogram of IR spectra (FIG. 8)
Fc1ccc([C@]2(Cn3cncn3)O[C@H]2c2ccccc2Cl)cc1 (racemic) [epoxiconazole] | third branch of the dendrogram
CO/C=C(/C(=O)OC)c1ccccc1Oc1cc(Oc2ccccc2C#N)ncn1 [azoxystrobin] | clustered together in the second branch
CCCCC(C#N)(Cn1cncn1)c1ccc(Cl)cc1 (stereo not drawn) [myclobutanil] | third branch of the dendrogram
CNC(=O)/C(=N/OC)c1ccccc1CO/N=C(C)/C(=N/OC)C(/C)=N/OC [orysastrobin] | clustered together in the second branch
COC(=O)N(OC)c1ccccc1COc1ccn(-c2ccc(Cl)cc2)n1 [pyraclostrobin] | clustered together in the second branch
propioconazole | third branch of the dendrogram
